Measurements reported in patent US20070128136A1, “Terrein compound having melanin biosynthesis inhibitors and its preparation” (priority 2003, published 2007).

Experiments:
Format in all cases: cell-based
[1] = system: Mel-Ab melanin cells; test: Melanin biosynthesis inhibiting effect in Mel-Ab melanin cells; conditions: for melanin biosynthesis inhibition: terrein 0-100 uM, kojic acid 0-100 uM, FIG. 5 and FIG. 6
Method: Particularly, Mel-Ab melanin cells were cultured in DMEM medium supplemented with 10% fetal bovine serum (FBS), 100 nM phobol 12-myristate 13-acetate, 1 nM cholera toxin, 50 ug/ml of streptomycin and 50 U/ml of penicillin under the condition of 5% CO2, 37° C. Mel-Ab melanin cells cultured in the above experimental example 1 were treated respectively with terrein compound and kojic acid, a conventional whitening agent, at different concentrations (0, 10, 25, 50, 75 and 100 uM of terrein compound and 0, 1, 10 and 100 uM of kojic acid). Both Mel-Ab melanin cells cultured under general culture conditions and Mel-Ab melanin cells treated with terrein compound of the present invention were observed under a microscope for comparison, and the result was shown in FIG. 7.

[2] = system: Mel-Ab melanin cells; test: Cytotoxicity test, crystal violet staining of Mel-Ab cells; conditions: 24 hours, under the concentration of 100 uM, FIG. 4
Method: In order to investigate cytotoxicity of terrein compound of the present invention, Mel-Ab cells were treated with the terrein compound.
Particularly, Mel-Ab melanin cells were cultured in DMEM medium supplemented with 10% fetal bovine serum (FBS), 100 nM phobol 12-myristate 13-acetate, 1 nM cholera toxin, 50 ug/ml of streptomycin and 50 U/ml of penicillin under the condition of 5% CO2, 37° C.
Mel-Ab melanin cells cultured above were treated with terrein compound at different concentrations (0, 10, 25, 50, 75, 100 uM) for 24 hours, followed by further culture. Then, medium was removed. Cells were stained with 0.5 ml of 0.1% crystal violet and Mel-Ab melanin cells were checked. Crystal violet was removed by washing several times. Crystal violet remaining in cells was extracted by using 1.0 ml of 95% ethanol. OD590 of the extracted crystal violet was measured by ELISA reader in order to investigate vitality of cells.

[3] = system: ERK (extracellular signal-regulated kinase); test: ERK activation in Mel-Ab melanin cells by Western blot; conditions: 100 uM
Method: (§1) In order to investigate melanin biosynthesis inhibiting mechanism of terrein compound of the present invention, Mel-Ab melanin cells cultured above were treated with 100 uM of terrein compound. And at each time point of 0, 2, 10, 30, 60, 180, and 360 minute, ERK (extracellular signal-regulated kinase) activation and MITF (microphthalmia-associated transcription factor) decomposition were investigated by Western blot.

[4] = system: MITF (microphthalmia-associated transcription factor); test: MITF decomposition in Mel-Ab melanin cells by Western blot; conditions: 100 uM, with ERK activation
Method: as §1

SMILES	melanin biosynthesis inhibition [1]	cytotoxicity (vitality of cells, OD590 of crystal violet) [2]	duration of ERK activation [3] [h]	time from treatment to ERK1 and ERK2 activation [3] [min]	ERK1 and ERK2 activation ([3]; FIG. 8)	melanin biosynthesis inhibiting effect relative to kojic acid ([1]; both at 10 uM) [times]	dark melanin of cells observed under a microscope ([1]; dose-dependently, FIG. 7)	expression of MITF [4]
O=c1cc(CO)occ1O [kojic acid, reference compound]	inhibited melanin biosynthesis dose-dependently							
C/C=C/C1=CC(=O)C(O)C1O (stereo not drawn) [terrein compound, 4,5-dihydroxy-3-propenyl-2-cyclopenten-1-one]	inhibited melanin biosynthesis dose-dependently	no cytotoxicity	≥ 6	2 to 10	activated fast	10	clearly decreased	decreased
